Reference: patent US11179436B2, “Methods and compositions comprising a C-terminal Bax peptide” (University of Central Florida Research Foundation, Inc., priority 2011, dated 2021)

Key:
[1] = Pore formation in zwitterionic and anionic membranes, kinetics of calcein release and structural studies; type: biochemical; details: calcein transport
Description: An analysis of formation of relatively large membrane pores by Bax C-terminal 20-reside peptide (CT20p) and two mutants where the two native lysines are replaced either with glutamates (charge reversal mutation) or leucines (charge neutralization mutation) were examined. […] The kinetics of calcein release at various concentrations of the three peptides allowed identification of the second-order rate constants of pore formation within the membrane, the affinity constants of peptide units composing the pore, and the oligomeric pore structure. Nucleation of the pore is shown to be relatively slow and involve 2-3 peptide molecules, followed by a faster process of assembly of the pore that includes up to eight peptide molecules. Structural studies led to a model of an octameric transmembrane pore with an inner diameter of 20-22 A. Analysis of the kinetics of calcein release from lipid vesicles allows determination of rate constants of pore formation, peptide-peptide affinities within the membrane, the oligomeric state of transmembrane pores, and the role of the lysine residues. […]
Additionally, the pore structure was analyzed by polarized Fourier transform infrared, circular dichroism, and fluorescence experiments on the peptides reconstituted in phospholipid membranes. […]

[2] = Calcein release from calcein-loaded large unilamellar vesicles; type: biochemical; details: for maximal release of calcein upon treatment with detergent: Triton X-100 after peptide; for maximal release of calcein upon treatment with detergent / release of calcein from mitochondrial-like lipid vesicles: FIG. 1C; for release of calcein from mitochondrial-like lipid vesicles: free peptide
Experimental: Calcein release from artificial membranes was measured on a JASCO 810 spectropolarimeter (Jasco Inc.) with a Peltier water cooled thermostat and a photomultiplier tube mounted at 90 degrees for fluorescence measurements. Large unilamellar vesicles (LUVs) were prepared with the following modifications: Lipids (Avanti Polar Lipids) in chloroform were mixed in the following molar ratios: 52.5% 1-palmitoyl-2-oleyl-sn-glycero-3-phosphatidylcholine (POPC), 21% 1-palmitoyl-2-oleyl-sn-glycero-3-phosphatidylethanolamine (POPE), 13% bovine liver L-α phosphatidylinositol (PI), 10% cholesterol and 3.5% 1-palmitoyl-2-oleyl-sn-glycero-3-phosphatidylglycerol (POPG). These rations mimicked the outer mitochondrial membrane. After removing chloroform and desiccating, the dried lipid film was resuspended in 50 mM HEPES, pH 7, supplemented with 110 mM NaCl and 80 mM calcein and extruded with Avanti's mini extruder (Alabaster, Ala.). External calcein was removed by gel filtration through a 1.5×50 cm Econo-Column (Bio-Rad) freshly packed with Sephadex 50 (GE Healthcare). CT20 Bax peptides were added at concentrations equivalent to those used with cells in culture. Calcein fluorescence was excited at 495 nm and emission spectra recorded between 510 and 550 nm (excitation/ emission slits: 10/3 nm). Samples were maintained at 37° C. and a final measurement taken at 24 hours. Maximum calcein release was obtained by the addition of Triton ×100 (0.1% final concentration) to calcein loaded LUVs without nanoparticles that had had been incubated at 37° C. for 24 hours after the addition of 10 μL DMSO.
Using a commercially synthesized peptide composed of the last twenty amino acids ([…]) of the C-terminus of Bax (CT20), the ability of CT20p peptideto insert and permeabilize lipid membranes was examined. Liposomes contained phospholipids that composed the mitochondrial outer membrane and were loaded with calcein. […] In FIG. 1C, the red lines indicate maximal release of calcein with Triton X-100. The blue lines indicate treatment with DMSO and the green lines (except for control) indicate treatment with CT20 Bax peptides.
To determine whether the CT20p peptide could directly kill cancer cells, the CT20 wild type peptide was encapsulated in polymeric nanoparticles. As the CT20p peptide is amphipathic, it can be encapsulated within the hydrophobic pockets of aliphatic polymeric nanoparticles. […] To verify that the nanoparticles would not release the CT20 peptide at neutral pH, calcein loaded liposomes were prepared.
In FIG. 9, a calcein release assay was performed with calcein loaded lipid vesicles prepared with the composition of the mitochondrial membrane. Calcein release was measured as fluorescence. Controls were calcein release achieved with CT20p peptide alone and maximum calcein release obtained upon addition of Triton x100. A representative experiment of two independent experiments is shown. This confirmed that cargo is released from nanoparticles only by intracellular esterases or acidic pH (Santra et al., 2010).

[3] = system: wild type E. coli; assay: E. coli colony formation after treatment; type: cell-based; details: FIG. 15
Experimental: This was determined by plating the E. coli after treatment then counting the resulting colonies after 24 hour incubation. […] The bacterial culture media was plated after 24 hours of treatment/exposure to Ct20p or the control conditions, a peptide (SCR) or no peptide and addition of DMSO, and the resulting colonies were counted. […] A conclusion was that the inhibition of growth seen in FIG. 14 was due to the killing or lysing of bacteria.

[4] = system: MDA-MB-231 cells; assay: Cell death by CT20 peptide/nanoparticles and/or CDDP, with Z-VAD-fmk or Bcl-2 overexpression; type: cell-based; details: FIG. 6A; for effect of caspase inhibition with Z-VAD-FMK on cell death: 100 μM Z-VAD-fmk pre-treatment; for cell death / loss of membrane integrity: CT20 peptide/nanoparticles 350 pM; for effect of Bcl-2 overexpression on cell death: transient Bcl-2 transfection
Experimental: MDA-MB-231 cells were transiently transfected with pcDNA-Bcl2 (or as control pEGFP (Clontech)) using the TransIT-LT1 transfection reagent (Minis). To assess transfection efficiency, cells were assayed microscopically for EGFP expression. To assess Bcl-2 expression, cells lysates were immunoblotted.
Visualization of the uptake and effects of the fluorescent dye (DiI)-loaded nanoparticles in HCT-116, MCF-7, and MDA-MD-231 cells was observed using a 10× air objective with a numerical aperture of 0.3, using ex/em of 514/587. All cells were loaded with MitoTracker. Visualization of the HCT-116 cell lines was observed using Plan-Apochromat 63× Oil objective. MCF-7 and MDA-MB-231 images were captured using Plan-Apochromat 40× Oil objective. All time-lapse images were generated in 2D by capturing 6 time points per hour for 24 hours of the same field.
(§1) HCT-116, MCF-7, or MDA-MB-231 cells were collected at a final concentration of 1×10^6 cells/mL and assayed using the SYTOX® AADvanced™ dead cell stain solution (Invitrogen). Cells were analyzed using the BD FACSCanto flow cytometer. SYTOX® AADvanced™ was visualized at 488 nm and emissions collected at 695 nm. Analysis of data was done using FSC Express software (DeNovo). Membrane asymmetry was assessed using the Violet Ratiometric Membrane Asymmetry Probe/Dead Cell Apoptosis Kit (Invitrogen) according to the manufacturer's protocol.
(§2) To evaluate apoptosis, cells were pre-treated with 100 μM of the pan-caspase inhibitor Z-VAD-fmk (EMD Biosciences) or transiently transfected with Bcl-2, then treated with either CT20/nanoparticles or cisplatin (CDDP) alone or in combination as indicated in figure legends. Following treatment, cells were analyzed for cell death and membrane asymmetry.
Whether the CT20 peptide was able to kill the breast cancer cells, MCF-7 and MDA-MB-231, was examined. […] For each sample, three different fields of view were acquired. Images are representative “snapshots” of three independent experiments Most MCF-7 cells died within 24 hours, while loss of membrane integrity was detected by 3 hours of treatment (FIG. 5B). […] Within three hours, increased membrane rupture was detected in MDA-MB-231 cells treated with COOH-nanoparticles loaded with CT20 peptide (FIG. 5D).
To investigate the mechanism by which the CT20p peptide was inducing cell death, MDA-MB-231 cells were treated with CT20 Bax peptide/nanoparticles (350 pM). A caspase inhibitor (e.g., ZVAD-Fmk and/or CDDP) was added or Bcl-2 was overexpressed. […] The expression of Bcl-2 by transfected cells was confirmed by immunoblotting lysates prepared from cells (FIG. 10).

[5] = system: wild type E. coli; assay: E. coli growth in broth by optical density; type: cell-based; details: FIG. 14
Experimental: Attributes are shared among the peptides. […] The E. coli were grown in the presence of a peptide, concentrations of CT20p peptide or for control, SCR peptide, or no peptide for a control, in standard conditions for growing bacteria in broth media.

[6] = system: MDA-MB-231 cells implanted in the flanks of nude mice; assay: Murine tumor experiment, intratumoral injection, tumor volume by ultrasound; type: in vivo; details: for tumor growth / change in tumor volume: intratumoral injections over a 4-5 day period, versus empty nanoparticles or PBS
Experimental: One to two million MBA-MD-231 cells were harvested from culture and injected subcutaneously into the right and left flanks of 16 female nude mice (nu/nu, Charles River). After 2-3 weeks, tumor volume and growth was assessed by ultrasound (VisualSonics Vevo 2100). Mice with tumors were injected intratumorally with PBS, unloaded polymeric nanoparticles, or CT20 Bax peptide-loaded polymeric nanoparticles at 4× the concentrations described above. Injections were performed twice over a 4-5 day period. Mice were observed 0-5 days post-treatments and tumor volume assessed by ultrasound.
MDA-MB-231 cells were implanted in the flanks of nude mice. Initial growth of tumors was detected after 2 weeks. At this time tumors were measured, and over a 4-5 day period, the mice were treated with intratumoral injections of PBS, unloaded or empty nanoparticles (NP), or CT20 peptide/nanoparticles.
FIG. 6D provides representative ultrasound image of changes in tumor volume induced by treatment on days 0, 2 and 4 with the unloaded or CT20 peptide loaded nanoparticles. These findings indicate reduced uptake or effectiveness in non-cancerous cells.

[7] = system: MDA-MB-231 cells; assay: Membrane asymmetry with violet ratiometric probe; type: cell-based; details: FIG. 6B
Experimental: as §1, §2
Therefore, to determine whether the CT20p peptide induced apoptotic cell death, the amount of membrane asymmetry caused by flipping of phospholipids phospholipids in the plasma membrane using a violet ratiometric probe was determined. In FIG. 6B, dot blots show the comparison of loss of membrane integrity to changes in membrane symmetry in MDA-MB-231 cells treated with CT20p peptide and/or CDDP. […] This was minimally affected by caspase inhibition or Bcl-2 expression. […]

Row | Compound | pore formation in lipid membranes [1] | pore formation in lipid membranes ([1]; listed as wild-type peptide) | release of calcein from liposomes ([2]; 350 pM, pH 7, FIG. 9) | maximal release of calcein upon treatment with detergent [2] | release of calcein from mitochondrial-like lipid vesicles [2] | nature of effect from colony counts ([3]; 24 hours of treatment) | minimum inhibitory concentration (MiC) ([3]; plated after treatment, colonies counted after 24 hour incubation) [mg] | effect of caspase inhibition with Z-VAD-FMK on cell death [4] | cell death / loss of membrane integrity [4] | effect of Bcl-2 overexpression on cell death [4] | time at which the growth curve reached a plateau [5] [h] | tumor growth / change in tumor volume [6] | tumor growth / change in tumor volume ([6]; listed as CT20 peptide) | damage of normal tissue surrounding the tumors ([6]; ultrasound, FIG. 6D) | changes in membrane symmetry [7]
1 | VTIFVAGVLTASLTIWKKMG [CT20p peptide] | efficient at forming pores | most efficient pores | did induce the release of calcein | impaired the maximal release of calcein | caused the release of calcein | bactericidal | 25 | largely unaffected | caused significant loss of membrane integrity | did not impair the death activity | 13 | tumor regression | prevented tumor growth | little to no observable damage of normal tissue | 
2 | VTIFVAGVLTASLTIWEEMG [CT20-EE] |  |  |  | did not occur | did not cause calcein release |  |  |  |  |  |  |  |  |  | 
3 | VTIFVAGVLTASLTIWLLMG [CT20-LL] |  |  |  | impaired the maximal release of calcein | did not cause calcein release |  |  |  |  |  |  |  |  |  | 
4 | [NH2][Pt]([NH2])([Cl])[Cl] [CDDP, cisplatin, reference compound] |  |  |  |  |  |  |  | inhibited by ZVAD-FMK | induced cell death | impaired death |  |  |  |  | induced significant alterations in the membrane symmetry
